Several values for one entry are separate records, joined by “and”; a condition that tells them apart may be missing. Identical values can stand only once.
Tests used:
human TRPM8 receptor = target: T1, human TRPM8 receptor (Homo sapiens, UniProt Q7Z2W7); experiment: Assay on TRPM8 modulators: Ca2+ signal (Fluo-4) in HEK293 cells stably transfected with human TRPM8; format: cell-based; set-up: Relative TRPM8 activation (%): concentration or dose not given beside the values; conditions: for EC50: HEK293-TRPM8 cells, Fluo-4, read-out: Activity in vitro assay (EC50)
T1 construct: expressed in transfected cells
T1 sequence (Q7Z2W7 whole entry): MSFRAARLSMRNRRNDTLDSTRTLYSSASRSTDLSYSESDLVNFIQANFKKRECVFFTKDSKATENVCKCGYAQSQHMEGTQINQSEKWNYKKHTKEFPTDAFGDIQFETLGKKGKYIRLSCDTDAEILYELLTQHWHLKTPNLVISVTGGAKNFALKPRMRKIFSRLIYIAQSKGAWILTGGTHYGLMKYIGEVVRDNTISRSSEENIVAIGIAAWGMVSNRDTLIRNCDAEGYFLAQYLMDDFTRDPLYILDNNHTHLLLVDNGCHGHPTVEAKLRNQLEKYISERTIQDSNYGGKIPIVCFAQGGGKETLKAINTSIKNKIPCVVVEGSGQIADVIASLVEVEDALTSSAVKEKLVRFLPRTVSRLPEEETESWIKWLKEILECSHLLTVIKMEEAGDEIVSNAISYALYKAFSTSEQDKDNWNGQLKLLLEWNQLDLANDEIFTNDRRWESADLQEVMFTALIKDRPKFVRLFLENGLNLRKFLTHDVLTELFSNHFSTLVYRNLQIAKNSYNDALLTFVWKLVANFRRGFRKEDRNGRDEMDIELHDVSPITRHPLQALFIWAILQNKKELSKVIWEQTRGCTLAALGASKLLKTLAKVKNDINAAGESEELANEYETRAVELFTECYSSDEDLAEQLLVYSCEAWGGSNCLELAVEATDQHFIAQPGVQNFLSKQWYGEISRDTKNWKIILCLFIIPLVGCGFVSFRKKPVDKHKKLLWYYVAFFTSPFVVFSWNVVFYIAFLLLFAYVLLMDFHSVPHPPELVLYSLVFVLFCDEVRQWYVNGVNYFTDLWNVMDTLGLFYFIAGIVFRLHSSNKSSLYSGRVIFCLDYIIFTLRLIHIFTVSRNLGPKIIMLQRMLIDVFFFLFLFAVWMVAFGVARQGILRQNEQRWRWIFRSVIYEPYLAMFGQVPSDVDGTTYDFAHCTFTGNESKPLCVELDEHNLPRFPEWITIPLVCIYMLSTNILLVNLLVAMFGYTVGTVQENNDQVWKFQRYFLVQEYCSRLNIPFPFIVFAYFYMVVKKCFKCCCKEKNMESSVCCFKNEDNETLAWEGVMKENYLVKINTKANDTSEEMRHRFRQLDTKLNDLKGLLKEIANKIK
Description: The starting point for cloning the human TRPM8 receptor is an LnCaP cDNA bank. This is commercially available (e.g. BioChain, Hayward, USA) or can be produced from the androgene-sensitive human prostate adenocarcinoma cell line LnCaP (e.g. ATCC, CRL1740 or ECACC, 891 1021 1) using standard kits.
The coding TRPM8 sequence (see e.g. http://www. ncbi.nlm.nih.gov/entrez/viewer.fcgi?db=nuccore&id=109689694) can be PCR amplified and cloned using standard methods. The human TRPM8 gene isolated in this way was used to produce the plasmid plnd_M8. Alternatively, the TRPM8 gene can also be produced synthetically.
As a test cell system, a stably transfected HEK293 cell line was produced with human TRPM8 DNA. Preference is given to HEK293, which offers the possibility of inducing TRPM8 expression with tetracycline via the introduced plasmid.
A test similar to the one already described in the literature by Behrendt H. J. et al., Br. J. Pharmacol. 141, 2004, 737-745, is performed. The agonisation or antagonisation of the receptor can be quantified by means of a Cab-sensitive dye (e.g. FURA, Fluo-4 etc.). Agonists alone cause an increase in the Ca^2+ signal; antagonists cause a reduction in the Ca^2+ signal in the presence of e.g. menthol (in each case detected via the dye Fluo-4, which has different fluorescence properties due to Ca^2+ ions).
First, a fresh culture of transformed HEK cells is prepared in cell culture flasks in a manner known per se. The HEK293-TRPM8 test cells are detached from the cell culture flasks using trypsin and 40,000 cells/well are seeded with 100 μl medium in 96-hole plates (Greiner #655948 poly-D-lysine-coated). Tetracycline is added to the growth medium to induce receptor TRPM8 (DMEM/HG, 10% FCS tetracycline-free, 4 mM L-glutamine, 15 μg/ml blasticidin, 100 μg/ml hygromycin B, 1 μg/ml tetracycline).
The following day, the cells are loaded with Fluo-4AM dye and the test is performed. The procedure is as follows: Addition of 100 μl/well staining solution Ca-4 Kit (RB 141, Molecular Devices) to each 100 μl medium (DMEM/HG, 10% FCS tetracycline-free, 4 mM L-glutamine, 15 μg/ml blasticidin, 100 μg/ml hygromycin B, 1 μg/ml tetracycline).
Incubation in incubator, 30 minutes/37° C./5% CO2, 30 minutes/RT.
Preparation of the test substances (different concentrations in 200 μl HBSS buffer), as well as positive controls (different concentrations of menthol, icilin or lonomycin in 200 μl HBSS buffer) and negative controls (only 200 μl HBSS buffer) addition of the test substances in amounts of 50 μl/well and measurement of the fluorescence change (e.g. in the assay device FLIPR, Molecular Devices or NovoStar, BMG) at 485 nm excitation, 520 nm emission, and evaluation of the potency of the different substances/concentrations and determination of the EC50 values.
The test substances are used in triplicates in concentrations of 0.1-200 μM in the assay. Normally, the compounds are kept ready in DMSO solutions and diluted down to a maximum DMSO concentration of 2% for the assay.
With the aid of the assay described, the activity of the active substances is determined in relation to activation of the TRPM8 channel. This is done in a concentration-dependent manner. As a standard, 6 to 10 concentrations are measured for each active substance. From the determined activity values, the EC50 value can be determined as the inflection point of the sigmoidal curve using a mathematical method (4-parameter or 5-parameter logistic curve fitting). These are standard methods of biochemistry that are quite familiar to the skilled person.

oral cavity = experiment: Sensory tasting of cooling intensity by trained panellists; format: in vivo, human; conditions: 5 ppm in 5% sugar solution, tasted 40 seconds, rated after one minute, scale 1 (very weak) to 9 (very strong)
Procedure: In order to quantify the cooling effect, comparative tests are carried out using menthan-3-carboxylic acid-N-ethylamide as a reference. For these comparative tests, the skilled person replaces the compound or compounds to be used according to the invention with menthan-3-carboxylic acid-N-ethylamide (also referred to as WS-3). Then the intensities of the cooling effects of the respective compounds or active substances are sensory evaluated by trained panellists (n=10 to 11) as described below and compared with each other.
The investigation of the cooling intensity was carried out as follows: Test solutions containing 5 ppm of the compounds of the invention were each tasted in a 5% sugar solution as well as a corresponding solution containing 30 ppm of the reference substance WS-3. […] The corresponding test solutions were tasted by the panellists for a time of exactly 40 seconds, rinsing the entire oral cavity with the corresponding test solution and then spitting out the sample or reference solution. Following the tasting, the test persons rated the respective cooling intensity after one minute according to a scale from 1 (very weak) to 9 (very strong).

EC50 (human TRPM8 receptor) | Compound | further results
0.1 µM and ≤ 1 µM | COc1ccc(CNCc2ccnc(N3CCCCC3)c2)cc1 [Example 27] | –
5.86 µM | CCOc1cccc(CNCc2ccnc(N3CCCCC3)c2)c1OCC [Example 25] | –
0.33 µM | CC1CCCCN1c1cc(CNCc2cccc3c2OCO3)ccn1 (centres unmarked) [Example 14] | –
0.8 µM | c1cc(CCNCCc2ccnc(N3CCCCC3)c2)c2c(c1)OCO2 [Example 34] | –
0.15 µM | Cc1ccc(CNCc2ccnc(N3CCCCC3)c2)cc1 [Example 41] | –
13 µM | c1cc(CNCc2ccnc(N3CCOCC3)c2)c2c(c1)OCO2 [Example 2] | –
2.01 µM | CCC1CCCN(c2cc(CNCc3cccc4c3OCO4)ccn2)C1 (centres unmarked) [Example 18] | –
0.6 µM | CC1CCCN(c2cc(CNCc3cccc4c3OCO4)ccn2)C1 (centres unmarked) [Example 13] | –
0.6 µM | COc1cccc(CNCc2ccnc(N3CCCCC3)c2)c1 [Example 49] | –
1.11 µM | CCOc1cccc(CNCc2ccnc(N3CCCCC3)c2)c1OC [Example 24] | –
1.19 µM | c1cc(CNCc2ccnc(N3CCSCC3)c2)c2c(c1)OCO2 [Example 22] | –
0.76 µM | COc1cccc(CNCc2ccnc(N3CCCCC3)c2)c1OC [Example 23] | –
2.63 µM | CC1(C)CCN(c2cc(CNCc3cccc4c3OCO4)ccn2)CC1 [Example 15] | –
0.72 µM | CC1(C)CCCN(c2cc(CNCc3cccc4c3OCO4)ccn2)C1 [Example 17] | –
0.00695 µM | COc1ccc(CNCc2ccnc(N3CCCCC3)c2)cc1 [Compound 87] | –
0.115 µM | c1cc(CNCc2ccnc(N3CCCCC3)c2)c2c(c1)OCO2 [Example 1] | –
0.06 µM | c1ccc(CNCc2ccnc(N3CCCCC3)c2)cc1 [Example 39] | –
2.01 µM | CC1CCN(c2cc(CNCc3cccc4c3OCO4)ccn2)CC1 [Example 12] | –

Second part, the compound before the results:

Compound | EC50 (human TRPM8 receptor) | further results
CCCC1CCN(c2cc(CNCc3cccc4c3OCO4)ccn2)CC1 [Compound 18 a] | – | Relative TRPM8 activation (%) (human TRPM8 receptor): −0.8%
c1cc(CNCc2ccnc(-n3cccc3)c2)c2c(c1)OCO2 [Compound 22 a] | – | Relative TRPM8 activation (%) (human TRPM8 receptor): 3%
c1ccc(-c2cc(CNCc3cccc4c3OCO4)cs2)cc1 [Compound 43 a] | – | Relative TRPM8 activation (%) (human TRPM8 receptor): 0%
COc1ccc(CNCc2ccnc(N3CCSCC3)c2)cc1 [Example 58] | 15.8 µM | –
c1ccc(-c2cc(CNCc3cccc4c3OCO4)co2)cc1 [Compound 31 a] | – | Relative TRPM8 activation (%) (human TRPM8 receptor): 0%
CC1CC(C)CN(c2cc(CNCc3cccc4c3OCO4)ccn2)C1 (centres unmarked) [Example 16] | 2.53 µM | –
CC(NCc1cccc2c1OCO2)c1ccnc(N2CCCCC2)c1 (centres unmarked) [Example 8] | 0.15 µM | –
CCN(Cc1ccnc(N2CCC(C)CC2)c1)Cc1cccc2c1OCO2 [Compound 19 a] | – | Relative TRPM8 activation (%) (human TRPM8 receptor): 3.4%
CSc1cc(CNCc2cccc3c2OCO3)ccn1 [Example 29] | 6.5 µM | –
O=C(NCc1cccc2c1OCO2)c1ccnc(N2CCCCC2)c1 [Compound 51 a] | – | Relative TRPM8 activation (%) (human TRPM8 receptor): 0%
CCNC(=O)[C@@H]1C[C@H](C)CC[C@H]1C(C)C [WS-3, L-menthanecarboxylic acid-N-ethylamide, reference compound] | 1.72 µM | –
c1ccc(-c2cccc(CNCc3cccc4c3OCO4)c2)nc1 [Compound 22 c] | – | Relative TRPM8 activation (%) (human TRPM8 receptor): 3.6%
c1cc(CNCc2cc3ccccc3o2)c2c(c1)OCO2 [Compound 32 a] | – | Relative TRPM8 activation (%) (human TRPM8 receptor): 1.3%
COc1ccc(C(C)NCc2ccnc(N3CCCCC3)c2)cc1 (centres unmarked) [Compound 85] | – | Cooling intensity (oral cavity): 2.1
CC(C)C(NCc1cccc2c1OCO2)c1ccnc(N2CCCCC2)c1 (centres unmarked) [Example 11] | 8.35 µM | –
Cc1ccc(N2CCC(C(=O)NCc3cccc4c3OCO4)CC2)nc1 [Compound 5 a] | – | Relative TRPM8 activation (%) (human TRPM8 receptor): 2.4%
COc1ccc(CNCc2cccc(N3CCCC3)c2)cc1 [Example 64] | 1.77 µM | –
